Results on eight compounds are retold here after patent US10272095B2 (GlaxoSmithKline Intellectual Property Development Limited, priority 2015, dated 2019).

SMILES strings stand for the structures. Structures can show the parent of a compound that is named as a salt.

In one assay the test system is NQO1 specific enzyme activity in BEAS-2B cells. The experiment in a line: BEAS-2B NQO1 MTT assay. The settings on record: Homo sapiens, BEAS-2B, 48 h, NQO1 specific enzyme activity induction in BEAS-2B cells, 48 hours; read-out: EC50. The format is cell-based. The source says: NAD(P)H:quinone oxidoreductase 1 (NQO1), also called DT diaphorase, is a homodimeric FAD-containing enzyme that catalyzes obligatory NAD(P)H-dependent two-electron reductions of quinones and protects cells against the toxic and neoplastic effects of free radicals and reactive oxygen species arising from one-electron reductions. The transcription of NQO1 is finely regulated by NRF2, and thus NQO1 activity is a good marker for NRF2 activation. On day one, frozen BEAS-2B cells (ATCC) are thawed in a water bath, counted, and re-suspended at a concentration of 250,000 cells/mL. Fifty microliters of cells are plated in 384 well black clear-bottomed plates. Plates are incubated at 37° C., 5% CO2 overnight. On day two, plates are centrifuged and 50 nL of compound or controls are added to the cells. Plates are then incubated at 37° C., 5% CO2 for 48 hours. On day four, medium is aspirated from the plate and crude cell lysates are made by adding 13 uL of 1× Cell Signaling Technologies lysis buffer with 1 Complete, Mini, EDTA-free Protease Inhibitor Tablet (Roche) for each 10 mL of lysis buffer. After lysis plates are incubated for 20 minutes at room temperature. Two microliters of lysate are removed for use in Cell Titer Glo assay (Promega) and MTT cocktail is prepared (Prochaska et. al. 1998) for measurement of NQO1 activity. Fifty microliters of MTT cocktail is added to each well, plate is centrifuged, and analyzed on an Envision plate reader (Perkin Elmer) using Absorbance 570 nm label for 30 minutes. Product formation is measured kinetically and the pEC50 of NQO1 specific activity induction is calculated by plotting the change in absorbance (Delta OD/min) versus the log of compound concentration followed by 3-parameter fitting.
EC50s<1 nM (+++++), EC50s 10 nM-1 nM (++++), EC50s 10-100 nM (+++), EC50s 100 nM-1 uM (++), EC50s 1 uM-10 uM (+), EC50s>10 uM (−), or were not determined (ND).
In general terms: Formazan colour is commonly taken as a measure of viable cells.
With `Cc1c([C@H](c2ccc3c(c2)[C@H](N2Cc4ncccc4OC(C)(C)C2)CC3)C(C)(C)C(=O)O)ccc2c1nnn2C` (racemic) [Example 67, rac-(R)-3-(1,4-Dimethyl-1H-benzo[d][1,2,3]triazol-5-yl)-3-(rac-(S)-3-(2,2-dimethyl-2,3-dihydropyrido[2,34][1,4]oxazepin-4(5H)-yl)-2,3-dihydro-1H-inden-5-yl)-2,2-dimethylpropanoic Acid, Trifluoroacetic Acid Salt], the EC50 was less than 0.001 µM.

As to `Cc1c([C@H](c2ccc3c(c2)[C@@H](N2Cc4ncccc4OC(C)(C)C2)CC3)C(C)(C)C(=O)O)ccc2c1nnn2C` (racemic) [Example 68, rac-(R)-3-(1,4-Dimethyl-1H-benzo[d][1,2,3]triazol-5-yl)-3-(rac-(R)-3-(2,2-dimethyl-2,3-dihydropyrido[2,3-f][1,4]oxazepin-4(5H)-yl)-2,3-dihydro-1H-inden-5-yl)-2,2-dimethylpropanoic acid], the EC50 was 0.01 to 0.1 µM.

In the case of `Cc1c([C@H](c2ccc3c(c2)[C@@H](N2Cc4ccncc4OC(C)(C)C2)CC3)C(C)(C)C(=O)O)ccc2c1nnn2C` (racemic) [Example 69, rac-(R)-3-(1,4--1H-benzo[d][1,2,3]triazol-5-yl)-3-(rac-(R)-3-(2,2-dimethyl-2,3-dihydropyrido[4,3-f][1,4]oxazepin-4(5H)-yl)-2,3-dihydro-1H-inden-5-yl)-2,2-dimethylpropanoic acid, Trifluoroacetic acid salt], the EC50 is less than 0.001 µM.

Consider `Cc1c([C@H](c2ccc3c(c2)[C@H](N2Cc4ccncc4OC(C)(C)C2)CC3)C(C)(C)C(=O)O)ccc2c1nnn2C` (racemic) [Example 70, rac-(R)-3-(1,4-Dimethyl-1H-benzo[d][1,2,3]triazol-5-yl)-3-(rac-(S)-3-(2,2-dimethyl-2,3-dihydropyrido[4,3-f][1,4]oxazepin-4(5H)-yl)-2,3-dihydro-1H-inden-5-yl)-2,2-dimethylpropanoic acid, Trifluoroacetic acid salt], for which the EC50 was in the range of 0.001 to 0.01 µM.

Take `CC[C@@H]1CN([C@@H]2CCc3ccc([C@@H](c4ccc5c(nnn5C)c4C)C(C)(C)C(=O)O)cc32)Cc2cnccc2O1` (relative stereo) [Example 71, rel-(S)-3-(1,4-Dimethyl-1H-benzo[d][1,2,3]triazol-5-yl)-3-(rel-(R)-3-((R)-2-ethyl-2,3-dihydropyrido[3,4-f][1,4]oxazepin-4(5H)-yl)-2,3-dihydro-1H-inden-5-yl)-2,2-dimethylpropanoic acid]: the EC50 is 0.001 to 0.01 µM.

Consider `CC[C@@H]1CN([C@@H]2CCc3ccc(C(c4ccc5c(nnn5C)c4C)C(C)(C)C(=O)O)cc32)Cc2cnccc2O1` (relative stereo) [Example 75, rel-(S)-3-(1,4-Dimethyl-1H-benzo[d][1,2,3]triazol-5-yl)-3-(rel-(R)-3-((R)-2-ethyl-2,3-dihydropyrido[3,4-f][1,4]oxazepin-4(5H)-yl)-2,3-dihydro-1H-inden-5-yl)-2,2-dimethylpropanoic acid], for which the EC50 lay within 0.01 to 0.1 µM.

Turning to `CC[C@@H]1CN([C@H]2CCc3ccc([C@H](c4ccc5c(nnn5C)c4C)C(C)(C)C(=O)O)cc32)Cc2cnccc2O1` (relative stereo) [Example 76, rel-(R)-3-(1,4-Dimethyl-1H-benzo[d][1,2,3]triazol-5-yl)-3-(rel-(S)-3-((R)-2-ethyl-2,3-dihydropyrido[3,4-f][1,4]oxazepin-4(5H)-yl)-2,3-dihydro-1H-inden-5-yl)-2,2-dimethylpropanoic acid], the EC50 is 1 to 10 µM.

The assay is the same for the next values; noted with them: NQO1 specific enzyme activity induction in BEAS-2B cells, 48 hours; read-out: EC50.
As to `CC[C@@H]1CN([C@H]2CCc3ccc([C@@H](c4ccc5c(nnn5C)c4C)C(C)(C)C(=O)O)cc32)Cc2cnccc2O1` (relative stereo) [Example 72, rel-(S)-3-(1,4-Dimethyl-1H-benzo[d][1,2,3]triazol-5-yl)-3-(rel-(S)-3-((R)-2-ethyl-2,3-dihydropyrido[3,4-f][1,4]oxazepin-4(5H)-yl)-2,3-dihydro-1H-inden-5-yl)-2,2-dimethylpropanoic acid], the EC50 was 0.001 to 0.01 µM.

In general, EC50 refers to the midpoint of the concentration-response curve.
